{
  "source": "paper PMC9401617",
  "about": "(Science Advances, 2022)",
  "key": {"hUHRF1 [1]": {"biological_target": "T1, hUHRF1 (Homo sapiens, UniProt Q96T88)", "T1 sequence (Q96T88 1-793)": "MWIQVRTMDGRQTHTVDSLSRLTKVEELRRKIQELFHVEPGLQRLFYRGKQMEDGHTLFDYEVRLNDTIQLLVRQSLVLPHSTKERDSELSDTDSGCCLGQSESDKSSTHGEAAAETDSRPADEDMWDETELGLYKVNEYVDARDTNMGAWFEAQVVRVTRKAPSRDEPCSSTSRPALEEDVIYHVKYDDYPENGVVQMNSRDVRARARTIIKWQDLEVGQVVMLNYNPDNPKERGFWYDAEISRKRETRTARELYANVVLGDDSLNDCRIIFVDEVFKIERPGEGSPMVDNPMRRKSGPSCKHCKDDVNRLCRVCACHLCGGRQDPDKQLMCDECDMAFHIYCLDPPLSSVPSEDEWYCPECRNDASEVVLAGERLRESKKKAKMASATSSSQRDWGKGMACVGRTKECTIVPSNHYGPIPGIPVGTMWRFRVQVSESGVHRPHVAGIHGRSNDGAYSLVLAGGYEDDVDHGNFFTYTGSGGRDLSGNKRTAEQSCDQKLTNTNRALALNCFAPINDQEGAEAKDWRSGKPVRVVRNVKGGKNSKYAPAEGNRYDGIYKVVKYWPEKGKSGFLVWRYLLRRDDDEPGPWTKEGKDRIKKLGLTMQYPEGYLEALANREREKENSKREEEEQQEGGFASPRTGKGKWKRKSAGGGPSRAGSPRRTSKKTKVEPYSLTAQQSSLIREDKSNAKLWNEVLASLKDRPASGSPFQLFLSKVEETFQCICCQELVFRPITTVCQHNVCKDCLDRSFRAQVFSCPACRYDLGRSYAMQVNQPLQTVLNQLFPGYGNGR", "assay": "MST with labeled recombinant protein", "format": "binding"}, "hUHRF1 [2]": {"biological_target": "T2, hUHRF1 (Homo sapiens, UniProt Q96T88, D142A)", "T2 sequence (Q96T88 1-793 D142A)": "T1 sequence (Q96T88 1-793) with D142A", "assay": "MST with labeled recombinant mutant protein", "format": "binding"}, "hUHRF1 [3]": {"biological_target": "T1, hUHRF1", "assay": "MST with labeled recombinant protein", "format": "binding", "remark": "listed apart in the source"}, "hUHRF1 [4]": {"biological_target": "T3, hUHRF1 (Homo sapiens, UniProt Q96T88, R649A)", "T3 sequence (Q96T88 1-793 R649A)": "T1 sequence (Q96T88 1-793) with R649A", "assay": "MST with labeled recombinant mutant protein", "format": "binding"}, "hUHRF1 (Homo sapiens)": {"test_system": "hUHRF1 (Homo sapiens)", "assay": "EMSA"}},
  "note": "Residue numbers refer to the chain shown, from its start. Like-named read-outs stand apart in the source and are kept apart here.",
  "data": [
    {"molecule": "CCCCCCCCCCCCCCCC(=O)OC[C@H](COP(=O)(O)O[C@H]1[C@H](O)[C@@H](OP(=O)(O)O)[C@H](O)[C@@H](O)[C@H]1O)OC(=O)CCCCCCCCCCCCCCC", "note": "[PI5P, di-C 16:0 PI5P]", "values": [
      {"measurement": "Kd", "setting": "hUHRF1 [1]", "result": 4.7, "unit": "µM"}
    ]},
    {"molecule": "CCCCCCCCCCCCCCCC(=O)OC[C@H](COP(=O)(O)O[C@H]1[C@H](O)[C@@H](OP(=O)(O)O)[C@H](O)[C@@H](O)[C@H]1O)OC(=O)CCCCCCCCCCCCCCC", "note": "[D142*, di-C 16:0 PI5P]", "values": [
      {"measurement": "Kd", "setting": "hUHRF1 [2]", "result": 60, "unit": "µM"}
    ]},
    {"molecule": "CCCCCCCCCCCCCCCC(=O)OC[C@H](COP(=O)(O)O[C@@H]1[C@H](O)[C@H](OP(=O)(O)O)[C@@H](O)[C@H](O)[C@H]1O)OC(=O)CCCCCCCCCCCCCCC", "note": "[PI3P, di-C 16:0 PI3P]", "values": [
      {"measurement": "Kd", "setting": "hUHRF1 [3]", "result": 5.5, "unit": "µM"}
    ]},
    {"molecule": "CCCCCCCCCCCCCCCC(=O)OC[C@H](COP(=O)(O)O[C@H]1[C@H](O)[C@@H](OP(=O)(O)O)[C@H](O)[C@@H](O)[C@H]1O)OC(=O)CCCCCCCCCCCCCCC", "note": "[R649*, di-C 16:0 PI5P]", "values": [
      {"measurement": "Kd", "setting": "hUHRF1 [4]", "result": 3, "unit": "µM"}
    ]},
    {"molecule": "H3unmodified mononucleosome, 147 bp Widom 601", "values": [
      {"measurement": "Kd", "setting": "hUHRF1 (Homo sapiens)", "result": 1.1, "unit": "µM"}
    ]}
  ]
}
